Where two headings read alike, the source gives them in different places.
Tests used:
Assay in all cases: receptor-mediated PP2C (HAB1) inhibition in vitro assay
Assay type in all cases: biochemical
PYL1 = molecular target: T1, PYL1 (Arabidopsis thaliana, UniProt Q8VZS8); details: for remaining activity at 50 µM: 50 uM of the test compound
T1 construct: 6X-His; made in house; host or cells: E. coli BL21[DE3]pLysS
T1 sequence (Q8VZS8 1-221): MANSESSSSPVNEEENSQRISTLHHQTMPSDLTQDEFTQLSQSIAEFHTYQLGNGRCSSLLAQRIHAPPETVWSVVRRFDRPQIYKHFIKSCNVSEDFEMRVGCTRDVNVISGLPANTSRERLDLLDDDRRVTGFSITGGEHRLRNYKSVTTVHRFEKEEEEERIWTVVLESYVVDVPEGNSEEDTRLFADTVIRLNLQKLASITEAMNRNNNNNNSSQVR
T1 sequence (Q9CAJ0 23-511 partner): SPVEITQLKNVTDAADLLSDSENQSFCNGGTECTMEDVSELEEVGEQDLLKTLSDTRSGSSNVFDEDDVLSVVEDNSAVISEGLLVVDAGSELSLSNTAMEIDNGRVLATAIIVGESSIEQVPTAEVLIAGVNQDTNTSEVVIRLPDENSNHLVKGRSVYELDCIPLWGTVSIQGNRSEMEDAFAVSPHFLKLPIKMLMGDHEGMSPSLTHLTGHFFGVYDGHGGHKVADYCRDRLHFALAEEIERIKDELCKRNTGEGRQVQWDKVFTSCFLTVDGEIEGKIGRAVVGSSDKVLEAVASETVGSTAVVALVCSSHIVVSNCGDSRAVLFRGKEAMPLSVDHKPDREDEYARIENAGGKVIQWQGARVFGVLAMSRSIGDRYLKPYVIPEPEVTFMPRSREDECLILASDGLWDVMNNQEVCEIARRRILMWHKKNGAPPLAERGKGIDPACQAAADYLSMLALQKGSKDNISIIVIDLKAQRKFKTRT
How it was run: (§1)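 Compounds, tested at 25 μM or 50 uM with ABA at 10 uM, were incubated with recombinant receptor and 50 nM GST-HAB1 (2:1 ratio) in MnCl2-containing Tris-OAc buffer, pH 7.9. Phosphatase activity was followed by 4-methylumbelliferyl-phosphate fluorescence.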

PYL11 = molecular target: T2, PYL11 (Arabidopsis thaliana, UniProt Q9FJ50); details: for remaining activity at 50 µM: 50 uM of the test compound
T2 construct: made in house; host or cells: E. coli BL21[DE3]pLysS
T2 sequence (Q9FJ50 1-161): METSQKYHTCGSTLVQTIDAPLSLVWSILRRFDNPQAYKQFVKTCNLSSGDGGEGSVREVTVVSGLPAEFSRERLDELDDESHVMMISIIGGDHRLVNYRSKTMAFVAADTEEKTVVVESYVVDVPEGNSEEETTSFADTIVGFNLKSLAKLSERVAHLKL
T2 sequence (Q9CAJ0 23-511 partner): T1 sequence (Q9CAJ0 23-511 partner)
How it was run: as §1

PYL2 = molecular target: T3, PYL2 (Arabidopsis thaliana, UniProt O80992); details: for remaining activity at 50 µM: 50 uM of the test compound
T3 construct: 6X-His; made in house; host or cells: E. coli BL21[DE3]pLysS
T3 sequence (O80992 1-190): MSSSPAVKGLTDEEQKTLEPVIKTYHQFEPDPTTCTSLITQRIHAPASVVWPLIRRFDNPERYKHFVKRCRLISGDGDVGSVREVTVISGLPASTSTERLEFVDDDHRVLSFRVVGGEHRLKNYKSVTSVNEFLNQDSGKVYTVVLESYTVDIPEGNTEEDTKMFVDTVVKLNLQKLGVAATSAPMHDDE
T3 sequence (Q9CAJ0 23-511 partner): T1 sequence (Q9CAJ0 23-511 partner)
How it was run: as §1

PYL5 = molecular target: T4, PYL5 (Arabidopsis thaliana, UniProt Q9FLB1); details: for remaining activity at 50 µM: 50 uM of the test compound; for remaining activity at 25 µM: compound at 25 μM, control without agonist = 100%
T4 construct: 6X-His; made in house; host or cells: E. coli BL21[DE3]pLysS
T4 sequence (Q9FLB1 1-203): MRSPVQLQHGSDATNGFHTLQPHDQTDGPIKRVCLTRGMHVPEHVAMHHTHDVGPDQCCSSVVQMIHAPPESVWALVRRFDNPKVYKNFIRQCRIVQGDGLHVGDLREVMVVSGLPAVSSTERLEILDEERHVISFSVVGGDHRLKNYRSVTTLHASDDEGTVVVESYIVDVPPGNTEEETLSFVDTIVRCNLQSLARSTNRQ
T4 sequence (Q9CAJ0 23-511 partner): T1 sequence (Q9CAJ0 23-511 partner)
How it was run: as §1

PYL6 = molecular target: T5, PYL6 (Arabidopsis thaliana, UniProt Q8S8E3); details: for remaining activity at 50 µM: 50 uM of the test compound
T5 construct: 6X-His; made in house; host or cells: E. coli BL21[DE3]pLysS
T5 sequence (Q8S8E3 1-215): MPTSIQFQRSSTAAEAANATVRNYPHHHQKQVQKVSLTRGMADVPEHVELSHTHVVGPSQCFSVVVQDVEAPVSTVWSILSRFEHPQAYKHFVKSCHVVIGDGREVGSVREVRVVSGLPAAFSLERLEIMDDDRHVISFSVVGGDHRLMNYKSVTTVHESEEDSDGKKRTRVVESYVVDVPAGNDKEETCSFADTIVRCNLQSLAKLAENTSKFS
T5 sequence (Q9CAJ0 23-511 partner): T1 sequence (Q9CAJ0 23-511 partner)
How it was run: as §1

PYL9 = molecular target: T6, PYL9 (Arabidopsis thaliana, UniProt Q84MC7); details: for remaining activity at 50 µM: 50 uM of the test compound; for remaining activity at 25 µM: compound at 25 μM, control without agonist = 100%
T6 construct: 6X-His; made in house; host or cells: E. coli BL21[DE3]pLysS
T6 sequence (Q84MC7 1-187): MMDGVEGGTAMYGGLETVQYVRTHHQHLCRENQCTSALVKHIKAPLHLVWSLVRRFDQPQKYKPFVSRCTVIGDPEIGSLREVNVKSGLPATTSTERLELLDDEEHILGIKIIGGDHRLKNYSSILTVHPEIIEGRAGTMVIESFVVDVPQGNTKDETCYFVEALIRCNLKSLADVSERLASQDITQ
T6 sequence (Q9CAJ0 23-511 partner): T1 sequence (Q9CAJ0 23-511 partner)
How it was run: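 Fluorogenic readout: 4-methylumbelliferyl-phosphate hydrolysis by 50 nM GST-HAB1 plus 2:1 His-receptor; Tris-OAc pH 7.9, NaCl, 1 mM MnCl2, β-ME. Compounds at 25 μM or 50 uM single dose; IC50 from dose curves for selected compounds.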

[1] = Table XII-B, calculated from dose curves, read-out: PP2C Activity (IC50 in uM) PYL1
[2] = Table XII-B, calculated from dose curves, read-out: PP2C Activity (IC50 in uM) PYL2
[3] = Table XII-B, calculated from dose curves, read-out: PP2C Activity (IC50 in uM) PYL5
[4] = Table XII-B, calculated from dose curves, read-out: PP2C Activity (IC50 in uM) PYL6
[5] = Table XII-B, calculated from dose curves, read-out: PP2C Activity (IC50 in uM) PYL9
[6] = Table XII-B, calculated from dose curves, read-out: PP2C Activity (IC50 in uM) PYL11
[7] = Table VII, read-out: PP2C Dose Curves PYL11 (IC50)
[8] = Table VII, read-out: PP2C Dose Curves PYL5 (IC50)
[9] = Table VII, read-out: PP2C Dose Curves PYL6 (IC50)
[10] = Table VII, read-out: PP2C Dose Curves PYL9 (IC50)

Structure (SMILES) | remaining activity at 50 µM (PYL1) [%] | IC50 (PYL1; [1]) [µM] | remaining activity at 50 µM (PYL11) [%] | remaining activity at 50 µM (PYL2) [%] | IC50 (PYL2; [2]) [µM] | remaining activity at 50 µM (PYL5) [%] | IC50 (PYL5; [3]) [µM] | remaining activity at 50 µM (PYL6) [%] | IC50 (PYL6; [4]) [µM] | remaining activity at 50 µM (PYL9) [%] | IC50 (PYL9; [5]) [µM] | IC50 (PYL11; [6]) [µM] | other results
CC(C)COC(=O)NS(=O)(=O)Cc1ccc(C#N)cc1 [Compound 65, 2-Methylpropyl N-[(4-cyanophenyl)methanesulfonyl]carbamate] | 91.7 | > 50 | 42.1 | 95.2 | > 50 | 23.6 | 14.2 | 58.9 | > 50 | 18.6 | 6.5 |  | 
CC1(C)CCC(C(=O)NS(=O)(=O)Cc2ccc(C#N)cc2)(c2ccc(F)cc2)CC1 [Compound 68, N-[(4-Cyanophenyl)methanesulfonyl]-1-(4-fluorophenyl)-4,4-dimethylcyclohexane-1-carboxamide] | 96 | > 50 | 16.2 | 94.8 | > 50 | 103 | > 50 | 46.6 |  | 22.6 | 17.7 | 2.22 | 
N#Cc1ccc(CS(=O)(=O)NC(=O)C2(c3ccc(F)cc3)CCCC2)cc1 [Compound 24] |  |  |  |  |  |  |  |  |  |  |  |  | IC50 (PYL1; Table VII, read-out: PP2C Dose Curves PYL1 (IC50)): > 50 µM; IC50 (PYL11; [7]): 4.09 µM; IC50 (PYL5; [8]): > 50 µM; remaining activity at 25 µM (PYL5): 99%; IC50 (PYL6; [9]): > 50 µM; IC50 (PYL9; [10]): 0.6 µM; remaining activity at 25 µM (PYL9): 10%; PYL9 agonist potency and selectivity (PYL9; five- and six-membered rings at alpha carbon): potent and relatively selective PYL9 agonists
O=C(NS(=O)(=O)Cc1ccc([N+](=O)[O-])cc1)C1(c2ccccc2)CCCCC1 [Compound 63] | 101 | > 50 | 92.6 | 115 | > 50 | 107 | > 50 | 108 | > 50 | 75.5 | > 50 | > 50 | 
N#Cc1ccc(CS(=O)(=O)NC(=O)C2(c3ccccc3)CCCCC2)cc1 [Compound 69, N-[(4-Cyanophenyl)methanesulfonyl]-1-phenylcyclohexane-1-carboxamide] | 98.4 | > 50 | 13.5 | 96.2 | > 50 | 119 | > 50 | 72.6 | > 50 | 5.8 | 0.135 | 2.53 | 
CC1=CC(=O)CC(C)(C)[C@@]1(O)/C=C/C(C)=C\C(=O)O [ABA, Abscisic acid, reference compound] |  |  |  |  |  |  |  |  |  |  |  |  | PP2C Activity PYL1 (PYL1; ABA (10 μM)): 5.9; PP2C Activity PYL11 (PYL11; ABA (10 μM)): 5.7; PP2C Activity PYL2 (PYL2; ABA (10 μM)): 6.1; PP2C Activity PYL5 (PYL5; ABA (10 μM)): 4.9; PP2C Activity PYL6 (PYL6; ABA (10 μM)): 10.9; PP2C Activity PYL9 (PYL9; ABA (10 μM)): 6.3
CC(C)(C(=O)NS(=O)(=O)Cc1ccc(C#N)cc1)c1ccc(F)cc1 [Compound 13] |  |  |  |  |  |  |  |  |  |  |  |  | IC50 (PYL11; [7]): 2.48 µM; IC50 (PYL2; Table VII, read-out: PP2C Dose Curves PYL2 (IC50)): > 50 µM; IC50 (PYL5; [8]): 11.1 µM; remaining activity at 25 µM (PYL5): 37%; IC50 (PYL6; [9]): 18.9 µM; IC50 (PYL9; [10]): 1.62 µM; remaining activity at 25 µM (PYL9): 17%

— US10757937B2, “Sulfonamides that activate ABA receptors” (The Regents of the University of California, priority 2014, dated 2020)
